Test results published in patent publication US20120009280A1, “METHOD OF REDUCING THE RATE OF DEGRADATION OF A BIOLOGICAL MATERIAL” (Bio-Energy Ingredients Limited, priority 2009, published 2012).

Test system: total micro-organism
Test: Total microbial (plate) count of spent brewer's / wet distiller's grains stored at ambient temperature
Type: cell-based
Design: total microbial count: unit: cfu/gram
Conditions: for preservation effect period: Example 18; for total microbial count: powder 10% (w/w); for preservation time with total microbial counts <10 cfu/g / preservation time with total microbial counts <100 cfu/g / preservation time with total microbial counts <1000 cfu/g: distiller's grains not de-watered, Examples 16-18
Excerpt: Samples of spent brewer's grains were drawn from the discharge line of a brewery in South Africa. The samples, packed in dry ice in a cold box, were transported over a distance of approximately 40 kilometres to a laboratory. At the laboratory, the samples were thoroughly mixed and initially split into a first portion (Portion 1) and a second portion (Portion 2). The second portion was about twice the size of the first. Portion 1 was left untreated. Material produced from Portion 1 and Portion 2 is designated below using the code “AR” (as received).
Portion 2 was placed on a clean, standard, laboratory screen deck with 1.4 mm apertures supported from below. As much water as possible was manually squeezed out with a clean flat plastic disc and the sample was then manually remixed after the squeezing. The squeezed material was then split into a third portion (Portion 3) and a fourth portion (Portion 4) of approximately the same size. Material produced from Portion 3 and Portion 4 is designated below using the code “SO” (squeezed).
Portion 4 was added to a high speed kitchen food-shredder and shredded for about two minutes. The shredded material was then returned to the 1.4 mm aperture screen and squeezed again, as described above, and manually remixed again after the second squeezing to produce a shredded and squeezed portion (Portion 5). Material produced from Portion 5 is designated below using the code “SH” (shredded).
Samples of Portion 1 (“AR”), Portion 3 (“SO”) and Portion 5 (“SH”) were then delivered to a microbiological testing facility about 15 kilometres from the treatment laboratory. Each was tested for initial total microbial, yeast and mould counts, respectively.
Separate untreated samples were similarly stored under insect-proof screens at ambient temperature for seven days (as shown in Tables 1 and 2). During the trial period the ambient temperature ranged from 11 to 33 degrees C.
After exposure to the environment for seven days, all of the samples were tested at a South African National Accreditation System (SANAS) approved microbiological testing facility. Each was tested for total micro-organism, yeast and mould counts to determine the affect of the various treatments.
Samples of spent brewer's grains were drawn from the discharge line of a brewery in South Africa.
At the laboratory, the samples were thoroughly mixed and initially split into a first portion (Portion 1) and a second portion (Portion 2). Portion 1 was left untreated. A sample of Portion 1, was delivered immediately to a microbiological testing facility about 15 kilometres away from the treatment laboratory and was tested for initial total microbial, yeast and mould counts, respectively.
Samples from Portion 2 were subjected to treatment with varying amounts of a powdered, commercially-available calcium oxide containing approximately 94% calcium oxide (CaO) as shown in Table 32. The treatments varied from 2.5 to 10% (w/w) calcium oxide addition. The samples were stored in batches (according to the calcium oxide treatment) under insect-proof screens at ambient temperature for fifty six days. […] During the trial period the ambient temperature ranged from 10 to 30 degrees C. As this period was the southern hemisphere spring/early summer, the humidity as well as ambient temperatures varied widely.
Samples from each treatment were drawn every seven days. No further calcium oxide treatment or agitation took place after the initial mix. In each case the entire sample was isolated and delivered to the microbiological testing facility.
(§1) In this trial the same source of wet distiller's grains (again with now partial water removal prior to treatment) was treated.
as §1

[1] = dose 10% w/w, partially de-watered wet distiller's grains, Example 8

`[Ca+2].[O-]CC(O)CO.[O-]CC(O)CO` [calcium diglyceroxide] was tested, and the Total plate count (10% Ca-DGO (w/w) granules, week 1) was 11000 cfu/gram, the Total plate count (10% Ca-DGO (w/w) granules, week 2) was <10 cfu/gram and the Total plate count (10% Ca-DGO (w/w) granules, week 3) was 540 cfu/gram. The Total plate count (10% Ca-DGO (w/w) granules, week 4) was 60 cfu/gram, the Total plate count (10% Ca-DGO (w/w) granules, week 5) was 650 cfu/gram and the Total plate count (10% Ca-DGO (w/w) powder, week 1) was 610 cfu/gram. The Total plate count (10% Ca-DGO (w/w) powder, week 2) was <10 cfu/gram, the Total plate count (10% Ca-DGO (w/w) powder, week 3) was 580 cfu/gram and the Total plate count (10% Ca-DGO (w/w) powder, week 4) was 5000 cfu/gram. For the same compound, the Total plate count (10% Ca-DGO (w/w) powder, week 5) was 36000 cfu/gram, the Total plate count (20% Ca-DGO (w/w) powder, week 1) was 80 cfu/gram and the Total plate count (20% Ca-DGO (w/w) powder, week 2) was 310 cfu/gram. The Total plate count (20% Ca-DGO (w/w) powder, week 3) was 140 cfu/gram, the Total plate count (20% Ca-DGO (w/w) powder, week 4) was 40 cfu/gram and the Total plate count (20% Ca-DGO (w/w) powder, week 5) was 10 cfu/gram. The Total plate count (40% Ca-DGO (w/w) powder, week 1) was 40 cfu/gram, the Total plate count (40% Ca-DGO (w/w) powder, week 2) was 450 cfu/gram and the Total plate count (40% Ca-DGO (w/w) powder, week 3) was 103 cfu/gram. The Total plate count (40% Ca-DGO (w/w) powder, week 4) was 10 cfu/gram, the Total plate count (40% Ca-DGO (w/w) powder, week 5) was 10 cfu/gram and the preservation effect period (granule form 15% (w/w)) was 9 week. For the same compound, the total microbial count (3 week time point) was 580, the total microbial count (week 4) was 5,000 and the total microbial count (week 5) was 36,000. The preservation effect period (powder form 15% (w/w)) was 9 week.
`[Ca+2].[OH-].[OH-]` [calcium hydroxide] was tested, and the “preservation time with total microbial counts <10 cfu/g” value (dose 3.3% w/w) was “≧6 weeks”, the “preservation time with total microbial counts <100 cfu/g” value (dose 3.3% w/w) was “≧6 weeks” and the “preservation time with total microbial counts <1000 cfu/g” value (dose 3.3% w/w) was “≧6 weeks”. For the same compound, the “preservation time with total microbial counts <10 cfu/g” value (dose 6.6% w/w) was “≧6 weeks”, the “preservation time with total microbial counts <100 cfu/g” value (dose 6.6% w/w) was “≧6 weeks” and the “preservation time with total microbial counts <1000 cfu/g” value (dose 6.6% w/w) was “≧6 weeks”.
For `[Ca+2].[O-2]` [CaO powder], the Total plate count (dose 5% (w/w), week 0) was 640 cfu/gram, the Total plate count (dose 5% (w/w), week 1) was 1800 cfu/gram and the Total plate count (dose 5% (w/w), week 2) was 280 cfu/gram. The Total plate count (dose 5% (w/w), week 3) was 210 cfu/gram, the Total plate count (dose 5% (w/w), week 4) was <10 cfu/gram and the Total plate count (dose 5% (w/w), week 6) was 40 cfu/gram. The Total plate count (dose 5% (w/w), week 7) was 900 cfu/gram, the Total plate count (dose 5% (w/w), week 8) was 120 cfu/gram and the Total plate count (dose 5% (w/w), week 9) was 20 cfu/gram. It also gave a Total plate count (dose 10% (w/w), week 0) of 100 cfu/gram, a Total plate count (dose 10% (w/w), week 1) of 310 cfu/gram and a Total plate count (dose 10% (w/w), week 2) of 150 cfu/gram. The Total plate count (dose 10% (w/w), week 3) was 40 cfu/gram, the Total plate count (dose 10% (w/w), week 4) was 20 cfu/gram and the Total plate count (dose 10% (w/w), week 6) was <10 cfu/gram. For the same compound, the Total plate count (dose 10% (w/w), week 7) was 300 cfu/gram, the Total plate count (dose 10% (w/w), week 8) was 80 cfu/gram and the Total plate count (dose 10% (w/w), week 9) was <10 cfu/gram. The “minimum preservation time with total microbial counts <60 cfu/g” value [1] was 2 weeks and the “minimum preservation time with total microbial counts <1000 cfu/g” value [1] was “≧1 year”.
